Reference: patent US5227299A, “NADH kinase and a process for producing the same” (Noda Institute for Scientific Research, priority 1991, dated 1993)
Each block holds one compound with its values, some of them ahead of it.

Legend:
[1] = system: NADH kinase (the present enzyme); assay: Inhibition, activation and stabilization of the present enzyme; assay type: biochemical, Pichia membranaefaciens
[2] = system: NADH kinase A; conditions: Table 3, NADH kinase A; cited from earlier work
[3] = system: NADH kinase (the present enzyme); assay: Substrate specificity of the present enzyme (NADH vs NAD+); assay type: biochemical, Pichia membranaefaciens; conditions: for Specificity (relative activity, NADH = 100): Table 3, present enzyme; for Relative activity (%): substrate NADH or NAD+, ATP, pH 8.5, 30° C., 20 minutes, percentage based on NADH
Experimental: The substrate specificity of the present enzyme was examined under the following reaction conditions. […]
To 0.9 ml of each of the above substrate solutions containing NADH or NAD^+ was added 0.1 ml of 23 U/ml of the present enzyme, and the reaction was carried out at 30° C. for 20 minutes. Then, the reaction was terminated by heat treatment at 100° C. for 2 minutes, and the denatured protein was removed, after which the amount of NADPH or NADP^+ produced by the reaction of the corresponding substrate was measured as follows. As a control solution, there was used a mixture of each substrate solution and the present enzyme in which the reaction had been terminated immediately after mixing them.
With 1 ml of each of the reaction solutions obtained in the above was mixed 1 ml of a color-producing solution consisting of 10 mM G-6-P, 50 mM HEPPS buffer (pH 8.0), 10 mM magnesium chloride, 0.1% bovine serum albumin, 2.5 IU/ml G-6-P dehydrogenase (NADP^+ -dependent), 5 IU/ml diaphorase and 250 μM 2,6-dichlorophenolindophenol. The resulting mixture was immediately introduced into a constant-temperature cuvette of STASAR III spectrophotometer of Gilford and subjected to reaction at 30° C. Simultaneously with the reaction, the change of absorbance at 600 nm was measured with the lapse of time, and the difference (ΔOD600 nm /min) between absorbance values 1 minute and 2 minutes after the initiation of the coloration reaction was taken as a measured value. As to relative activity (%), a measured value (ΔOD600 nm /min) obtained by using NAD^+ as a substrate was shown as a percentage based on a measured value (ΔOD600 nm /min) obtained by using NADH as a substrate.

[4] = system: NADH kinase B; conditions: Table 3, NADH kinase B; cited from earlier work

Compound: [Cd+2] [Cd^2+]
Inhibition of the present enzyme [1]: strongly inhibited

Inhibition of the present enzyme [1]: strongly inhibited
Compound: [Cu+2] [Cu^2+]

Compound: [Hg+2] [Hg^2+]
Inhibition of the present enzyme [1]: strongly inhibited

Stabilization of the present enzyme [1]: stabilized
Compound: [Mg+2] [Mg^2+]

Stabilization of the present enzyme [1]: stabilized
Compound: [Mn+2] [Mn^2+]

Compound: NC(=O)C1=CN([C@@H]2O[C@H](COP(=O)(O)OP(=O)(O)OC[C@H]3O[C@@H](n4cnc5c(N)ncnc54)[C@H](O)[C@@H]3O)[C@@H](O)[C@H]2O)C=CC1 [NADH]
Specificity (relative activity, NADH = 100) [2]: 100
Action of the present enzyme on the substrate [3]: very specific
Specificity (relative activity, NADH = 100) [3]: 100
Relative activity (%) [3]: 100%
Specificity (relative activity, NADH = 100) [4]: 100

Compound: NC(=O)c1ccc[n+]([C@@H]2O[C@H](COP(=O)([O-])OP(=O)(O)OC[C@H]3O[C@@H](n4cnc5c(N)ncnc54)[C@H](O)[C@@H]3O)[C@@H](O)[C@H]2O)c1 [NAD^+]
Specificity (relative activity, NADH = 100) [2]: 1.7
Action of the present enzyme on the substrate [3]: hardly acts
Specificity (relative activity, NADH = 100) [3]: 0.9
Relative activity (%) [3]: 0.9%
Specificity (relative activity, NADH = 100) [4]: 1.6

Compound: [Pb+2] [Pb^2+]
Inhibition of the present enzyme [1]: strongly inhibited

Compound: CCCCCCCCCCCCOS(=O)(=O)[O-].[Na+] [SDS, sodium lauryl sulfate, reference compound]
Inhibition of the present enzyme [1]: strongly inhibited

Inhibition of the present enzyme [1]: strongly inhibited
Compound: [Zn+2] [Zn^2+]

Compound: N.N.O=S(=O)(O)O [ammonium sulfate]
Stabilization of the present enzyme [1]: stabilized

Compound: O=C(O)c1cc[c]([Hg][Cl])cc1 [p-CMB, p-chloromercuribenzoic acid, reference compound]
Inhibition of the present enzyme [1]: strongly inhibited

Stabilization of the present enzyme [1]: stabilized
Compound: OC[C@H]1O[C@@](CO)(O[C@H]2O[C@H](CO)[C@@H](O)[C@H](O)[C@H]2O)[C@@H](O)[C@@H]1O [saccharose]

Activation of the present enzyme [1]: activated
Compound: CC(=O)O [sodium acetate]
